Eleven compounds from PubChem BioAssay (NCI) can be followed below.

Among the test systems are UO-31 renal; T-47D breast; U251 CNS; PC-3 prostate; HOP-62 NSCLC; NCI-H23 lung; MCF7 breast; IGROV1 ovarian; SK-MEL-2 melanoma; A549 NSCLC; A498 renal.
Experiment in all cases: inhibition of tumour cell growth, NCI panel, 48 h

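Cultured in 96-well plates, cells were exposed to test compound for 48 hours across five concentrations. TGI marks complete inhibition of growth.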 Where a SMILES comes first, the peptide text is derived from it. The star is where a group is joined. Fmoc = O=C(OCC1c2ccccc2-c2ccccc21)*; OtBu = CC(C)(C)O*

In the case of `Cc1c(C)c2ccc(OCC(O)COC(C)C)c(C)c2oc1=O` (stereo not given), the TGI in the assay with UO-31 renal is more than 100 µM; in the assay on T-47D breast, more than 100 µM; with U251 CNS, 33.8 µM; with PC-3 prostate, more than 100 µM; in the assay with HOP-62 NSCLC, 58.6 µM; with NCI-H23 lung, more than 100 µM. Further, the TGI in the assay with MCF7 breast is 50.1 µM; in the assay on IGROV1 ovarian it was more than 100 µM; with SK-MEL-2 melanoma it was 36.8 µM; in the assay with A549 NSCLC, more than 100 µM.
`COc1ccc(N=c2oc3ccccc3cc2C(N)=O)cc1`: the TGI with UO-31 renal is 14.8 µM; in the assay on T-47D breast, more than 100 µM; in the assay with U251 CNS it was more than 100 µM; with PC-3 prostate, more than 100 µM; in the assay with HOP-62 NSCLC, 34.8 µM; in the assay with NCI-H23 lung, more than 100 µM. Moreover, the TGI with MCF7 breast is 87.7 µM; with IGROV1 ovarian, more than 100 µM; in the assay on SK-MEL-2 melanoma it was more than 100 µM; with A549 NSCLC, more than 100 µM.
On to `COC(=O)c1c([N+](=O)[O-])ncn1[C@H]1OC[C@@H](OC(C)=O)[C@@H](OC(C)=O)[C@@H]1OC(C)=O`, for which the TGI in the assay with UO-31 renal, with T-47D breast, in the assay with U251 CNS, in the assay with PC-3 prostate, in the assay with HOP-62 NSCLC and with NCI-H23 lung was more than 100 µM in each case. Moreover, the TGI in the assay with A498 renal, in the assay on MCF7 breast, in the assay on IGROV1 ovarian and in the assay with A549 NSCLC was more than 100 µM in each case.
In the case of `N#CC12C(=O)NC(=O)C1(C#N)C1C=CC2CC1` (stereo not given), the TGI in the assay with UO-31 renal, in the assay on T-47D breast, with U251 CNS, with PC-3 prostate, in the assay with NCI-H23 lung and in the assay with MCF7 breast was more than 100 µM throughout. Also, the TGI with A549 NSCLC is more than 100 µM.
As for `CC(=O)OCCn1cnc2c(NCC=C(C)C)ncnc21`, the TGI with UO-31 renal, in the assay with T-47D breast, in the assay on PC-3 prostate, in the assay on HOP-62 NSCLC, in the assay on NCI-H23 lung and with A498 renal was more than 100 µM throughout. Further, the TGI with MCF7 breast, with IGROV1 ovarian and with A549 NSCLC was more than 100 µM in each case.
Turning to `CC(C)C(NC(=O)OCC1c2ccccc2-c2ccccc21)C(=O)NC(CCC(=O)OC(C)(C)C)C(=O)OC(C)(C)C` (stereo not given) (Fmoc-Val-Glu(OtBu)-OtBu; configuration not given here), the TGI was more than 100 µM with UO-31 renal; more than 72.7 µM with T-47D breast; more than 100 µM in the assay on U251 CNS; more than 100 µM in the assay with PC-3 prostate; more than 100 µM with HOP-62 NSCLC; more than 100 µM with NCI-H23 lung. For the same compound, the TGI with A498 renal, with MCF7 breast, in the assay on IGROV1 ovarian and in the assay with A549 NSCLC was more than 100 µM in each case.
For the compound `COc1cc(OC)cc(OCc2nc3cc(C(F)(F)F)ccc3nc2-c2ccccc2)c1`, the TGI in the assay on UO-31 renal, in the assay on T-47D breast, with U251 CNS, in the assay with PC-3 prostate, in the assay on HOP-62 NSCLC and with NCI-H23 lung was more than 100 µM in each case. Also, the TGI in the assay on MCF7 breast, in the assay with IGROV1 ovarian, in the assay with SK-MEL-2 melanoma and with A549 NSCLC was more than 100 µM in each case.
For `O=c1nc2n3c4c(cccc4nc-2c(=O)[nH]1)CCC3`, the TGI with UO-31 renal, in the assay on T-47D breast, with U251 CNS, in the assay on PC-3 prostate, in the assay with HOP-62 NSCLC and in the assay with NCI-H23 lung was more than 100 µM each time. The TGI in the assay on MCF7 breast, with IGROV1 ovarian, with SK-MEL-2 melanoma and in the assay with A549 NSCLC was more than 100 µM in each case.
For `NC(=O)C1CCCN1C(=O)C(Cc1cnc[nH]1)NC(=O)C1CCCC1` (stereo not given), the TGI in the assay on UO-31 renal, in the assay on T-47D breast, with U251 CNS, in the assay on PC-3 prostate, in the assay on HOP-62 NSCLC and in the assay on NCI-H23 lung was more than 100 µM in each case. The TGI in the assay with A498 renal, in the assay with MCF7 breast, in the assay on IGROV1 ovarian and with A549 NSCLC was more than 100 µM throughout.
As for `N#Cc1ccc(C(O)C(F)(F)c2nc3ccccc3o2)cc1` (stereo not given), the TGI in the assay with UO-31 renal, with T-47D breast, with U251 CNS, in the assay on PC-3 prostate, in the assay with HOP-62 NSCLC and in the assay with NCI-H23 lung was more than 100 µM throughout. Further, the TGI in the assay with MCF7 breast, in the assay with IGROV1 ovarian and in the assay on SK-MEL-2 melanoma was more than 100 µM in each case.
On to `C=C(Cl)C(Cl)(CBr)CCC(Br)C(C)(C)Br` (stereo not given), for which the TGI in the assay on UO-31 renal came to 20.1 µM; in the assay on T-47D breast, 7.42 µM; in the assay on U251 CNS, 3.37 µM; with PC-3 prostate, 5.68 µM; with HOP-62 NSCLC, 1.83 µM; in the assay with NCI-H23 lung, 31.5 µM. The TGI in the assay on A498 renal was 23.3 µM; with MCF7 breast, 3.34 µM; in the assay on IGROV1 ovarian it was 37.3 µM; with A549 NSCLC, 16.3 µM.
